These results are taken from patent US20260184710A1, “CASITAS B-LINEAGE LYMPHOMA PROTOONCOGENE B (CBL-B) DEGRADING COMPOUNDS AND ASSOCIATED METHODS OF USE” (Arvinas Operations, Inc., priority 2022, published 2026).

Structures are written as SMILES.

The target in test [1] is T1, Cbl-b (Homo sapiens, UniProt Q13191).
T1 construct: Cbl-b-HiBit KI Jurkat Cells were purchased from Promega; host or cells: Cbl-b-HiBiT knock-in Jurkat cells
The test is described as follows: Cbl-b Degradation Method B (Nano-Glo HiBiT lytic detection). The conditions noted are these: Cbl-b-HiBit KI Jurkat Cells, incubated at least 6-24 hours; for DC50: half maximal degradation, read-out: Cbl-b Degredation Method B IC50; for Dmax / Cbl-b Degredation Method B Dmax (%): maximum degradation observed; for Dmax: read-out: Cbl-b Degredation Method B Dmax (%). It is filed as cell-based. In short, it runs like this:
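Cbl-b-HiBiT knock-in Jurkat cells (20,000/well) were treated after ~24 h plating with an 11-point 1:3 series for 6-24 h at 37° C. Remaining Cbl-b measured by Nano-Glo HiBiT lytic luminescence. DC50 and Dmax expressed as % of control.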

Test [2] addresses T1, Cbl-b. In words: Cbl-b Degradation Method A (FACS, anti-Cbl-b antibody staining). The conditions noted are these: Cbl-b-HiBit KI Jurkat Cells, incubated at least 20 hours; for DC50: half maximal degradation, read-out: Cbl-b Degredation Method A IC50; for Dmax: Jurkat, maximum degradation observed, read-out: Cbl-b Degredation Method A Dmax (%). It counts as cell-based. A digest of the protocol: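 Cbl-b-HiBit KI Jurkat cells treated with compound for at least 20 h at 37 °C, then fixed, permeabilized and stained with anti-Cbl-b antibody plus anti-rabbit AF488 secondary. Cbl-b levels read by FACS; DC50 and Dmax (percent of control) derived.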

T1 sequence (Q13191 whole entry): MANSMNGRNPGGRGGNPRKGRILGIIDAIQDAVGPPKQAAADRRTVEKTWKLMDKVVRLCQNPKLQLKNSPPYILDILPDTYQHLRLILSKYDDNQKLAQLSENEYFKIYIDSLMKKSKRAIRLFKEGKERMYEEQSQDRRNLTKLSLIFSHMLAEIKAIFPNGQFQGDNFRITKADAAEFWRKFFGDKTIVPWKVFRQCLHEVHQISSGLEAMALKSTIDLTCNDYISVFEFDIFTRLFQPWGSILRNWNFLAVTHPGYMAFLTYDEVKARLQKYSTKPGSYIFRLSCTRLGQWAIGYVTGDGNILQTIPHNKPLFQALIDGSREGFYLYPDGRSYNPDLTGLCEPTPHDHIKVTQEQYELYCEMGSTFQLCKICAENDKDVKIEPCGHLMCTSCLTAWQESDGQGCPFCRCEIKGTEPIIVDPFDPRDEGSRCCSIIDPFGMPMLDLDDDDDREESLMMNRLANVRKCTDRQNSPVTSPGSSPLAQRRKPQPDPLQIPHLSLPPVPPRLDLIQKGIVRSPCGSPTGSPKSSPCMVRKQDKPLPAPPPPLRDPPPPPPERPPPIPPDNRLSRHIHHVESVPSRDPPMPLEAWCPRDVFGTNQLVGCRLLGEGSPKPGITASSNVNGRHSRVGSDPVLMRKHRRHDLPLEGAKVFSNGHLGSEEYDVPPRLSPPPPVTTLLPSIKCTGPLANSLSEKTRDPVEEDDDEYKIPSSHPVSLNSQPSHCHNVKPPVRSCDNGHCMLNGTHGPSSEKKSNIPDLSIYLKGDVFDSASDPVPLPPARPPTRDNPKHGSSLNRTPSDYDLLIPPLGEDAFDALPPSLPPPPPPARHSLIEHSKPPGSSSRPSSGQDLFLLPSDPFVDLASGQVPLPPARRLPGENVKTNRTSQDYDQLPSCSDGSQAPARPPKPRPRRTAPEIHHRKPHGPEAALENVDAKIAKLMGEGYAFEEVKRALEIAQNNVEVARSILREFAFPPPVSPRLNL

As to `CC1c2nc(N3CCC(O[C@H]4CC[C@H](CN5CCC6(CC5)CN(c5cc7c(c(C(F)(F)F)c5)CN(c5cccc([C@]8(Cc9nncn9C)C[C@@H](C#N)C8)c5)C7=O)C6)CC4)CC3)ccc2C(=O)N1C1CCC(=O)NC1=O` (stereo partly shown) [Example 175, (1r,3r)-3-[(4-methyl-4H-1,2,4-triazol-3-yl)methyl]-3-{3-[1-oxo-6-(7-{[(1r,4r)-4-({1-[6-(2,6-dioxopiperidin-3-yl)-7-methyl-5-oxo-5H,6H,7H-pyrrolo[3,4-b]pyridin-2-yl]piperidin-4-yl}oxy)cyclohexyl]methyl}-2,7-diazaspiro[3.5]nonan-2-yl)-4-(trifluoromethyl)-2,3-dihydro-1H-isoindol-2-yl]phenyl}cyclobutane-1-carbonitrile], the results for the DC50 on Cbl-b [1] and at Cbl-b [2] were less than 5 nM and 5 to 50 nM, respectively. For the same molecule, the greatest degradation seen (Dmax) was 35 to 70% at Cbl-b [1] and greater than 70% at Cbl-b [2].
For the molecule `Cn1cnnc1CC1(c2cccc(N3Cc4c(cc(N5CC(OCC6CCN(c7ccc8c(c7)CN(C7CCC(=O)NC7=O)C8=O)CC6)C5)cc4C(F)(F)F)C3=O)c2)COC1` (stereo not shown) [Example 21, 3-[5-[4-[[1-[2-[3-[3-[(4-methyl-1,2,4-triazol-3-yl)methyl]oxetan-3-yl]phenyl]-3-oxo-7-(trifluoromethyl)isoindolin-5-yl]azetidin-3-yl]oxymethyl]-1-piperidyl]-1-oxo-isoindolin-2-yl]piperidine-2,6-dione], the DC50 on Cbl-b [1] and on Cbl-b [2] was greater than 500 nM each time.
Regarding `Cn1cnnc1CC1(c2cccc(N3Cc4c(cc(CN5CCC(CN6CCC(c7ccc8c(c7)C(=O)N(C7CCC(=O)NC7=O)C8=O)CC6)CC5)cc4C(F)(F)F)C3=O)c2)COC1` (stereo not shown) [Example 82, 2-(2,6-dioxopiperidin-3-yl)-5-{1-[(1-{[2-(3-{3-[(4-methyl-4H-1,2,4-triazol-3-yl)methyl]oxetan-3-yl}phenyl)-3-oxo-7-(trifluoromethyl)-2,3-dihydro-1H-isoindol-5-yl]methyl}piperidin-4-yl)methyl]piperidin-4-yl}-2,3-dihydro-1H-isoindole-1,3-dione], the DC50 at Cbl-b [1] and at Cbl-b [2] was greater than 500 nM throughout.
Take `Cn1cnnc1CC1(c2cccc(N3Cc4c(cc(CN5CCC[C@@H](CN6CCC(CC7CCN(c8ccc9c(c8)C(=O)N(C8CCC(=O)NC8=O)C9=O)CC7)CC6)C5)cc4C(F)(F)F)C3=O)c2)COC1` (stereo partly drawn) [Example 110, 2-(2,6-dioxopiperidin-3-yl)-5-{4-[(1-{[(3S)-1-{[2-(3-{3-[(4-methyl-4H-1,2,4-triazol-3-yl)methyl]oxetan-3-yl}phenyl)-3-oxo-7-(trifluoromethyl)-2,3-dihydro-1H-isoindol-5-yl]methyl}piperidin-3-yl]methyl}piperidin-4-yl)methyl]piperidin-1-yl}-2,3-dihydro-1H-isoindole-1,3-dione]: the DC50 at Cbl-b [1] was greater than 500 nM. At Cbl-b [2], the DC50 is 5 to 50 nM and the Dmax was less than 35%.
For `Cn1cnnc1CC1(c2cccc(N3Cc4c(cc(CN5CCN(C[C@H]6CC[C@H](OC7CCN(c8ccc9c(c8)CC(=O)N9C8CCC(=O)NC8=O)CC7)CC6)CC5(C)C)cc4C(F)(F)F)C3=O)c2)CC(C#N)C1` (stereo partly shown) [Example 316, (1r**,3r**)-3-(3-{6-[(2,2-dimethyl-4-{[(1r*,4r*)-4-({1-[1-(2,6-dioxopiperidin-3-yl)-2-oxo-2,3-dihydro-1H-indol-5-yl]piperidin-4-yl}oxy)cyclohexyl]methyl}piperazin-1-yl)methyl]-1-oxo-4-(trifluoromethyl)-2,3-dihydro-1H-isoindol-2-yl}phenyl)-3-[(4-methyl-4H-1,2,4-triazol-3-yl)methyl]cyclobutane-1-carbonitrile], at Cbl-b [1], the DC50 was less than 5 nM and the “Cbl-b Degredation Method B Dmax (%)” value is recorded as “C (C ≤ 35)”. Besides, at Cbl-b [2], the DC50 is 50 to 500 nM and the Dmax is greater than 70%.
Consider `CC1c2nc(N3CCC(O[C@H]4CC[C@@H](CN5CCN(C[C@H]6CCCN(Cc7cc8c(c(C(F)(F)F)c7)CN(c7cccc(C9(Cc%10nncn%10C)COC9)c7)C8=O)C6)CC5)CC4)CC3)ccc2C(=O)N1C1CCC(=O)NC1=O` (stereo partly drawn) [Example 160, 3-[7-methyl-5-oxo-2-(4-{[(1r,4r)-4-[(4-{[(3S)-1-{[2-(3-{3-[(4-methyl-4H-1,2,4-triazol-3-yl)methyl]oxetan-3-yl}phenyl)-3-oxo-7-(trifluoromethyl)-2,3-dihydro-1H-isoindol-5-yl]methyl}piperidin-3-yl]methyl}piperazin-1-yl)methyl]cyclohexyl]oxy}piperidin-1-yl)-5H,6H,7H-pyrrolo[3,4-b]pyridin-6-yl]piperidine-2,6-dione], for which, at Cbl-b [1], the DC50 is less than 5 nM and the Dmax is 35 to 70%. At Cbl-b [2], the DC50 was less than 5 nM and the Dmax lay within 35 to 70%.
With `Cn1cnnc1CC1(c2cccc(NC(=O)c3cc(N4CC5(CCN(CC6CCN(c7ccc8c(c7)C(=O)N(C7CCC(=O)NC7=O)C8=O)CC6)CC5)C4)nc(C4CC4)n3)c2)COC1` (stereo not shown) [Example 18, 2-cyclopropyl-6-[7-[[1-[2-(2,6-dioxo-3-piperidyl)-1,3-dioxo-isoindolin-5-yl]-4-piperidyl]methyl]-2,7-diazaspiro[3.5]nonan-2-yl]-N-[3-[3-[(4-methyl-1,2,4-triazol-3-yl)methyl]oxetan-3-yl]phenyl]pyrimidine-4-carboxamide], the DC50 on Cbl-b [1] was greater than 500 nM. Also, at Cbl-b [2], the DC50 fell in the range of 50 to 500 nM and the maximal degradation (Dmax) is less than 35%.
In the case of `CC(C)n1c(=O)n(C2CCC(=O)NC2=O)c2cccc(N3CCC(CN4CCC5(CC4)CN(c4cc6c(c(C(F)(F)F)c4)CN(c4cccc([C@]7(Cc8nncn8C)C[C@@H](C#N)C7)c4)C6=O)C5)CC3)c21` (stereo partly shown) [Example 284, (1r,3r)-3-(3-{6-[7-({1-[1-(2,6-dioxopiperidin-3-yl)-2-oxo-3-(propan-2-yl)-2,3-dihydro-1H-1,3-benzodiazol-4-yl]piperidin-4-yl}methyl)-2,7-diazaspiro[3.5]nonan-2-yl]-1-oxo-4-(trifluoromethyl)-2,3-dihydro-1H-isoindol-2-yl}phenyl)-3-[(4-methyl-4H-1,2,4-triazol-3-yl)methyl]cyclobutane-1-carbonitrile], at Cbl-b [1], the DC50 was less than 5 nM and the “Cbl-b Degredation Method B Dmax (%)” value is reported as “C (C ≤ 35)”. Besides, at Cbl-b [2], the DC50 lay in the range of 50 to 500 nM and the Dmax fell in the range of 35 to 70%.
The corresponding values for `CC1c2nc(N3CCC(CN4CCN(CC5CCN(Cc6cc7c(c(C(F)(F)F)c6)CN(c6cccc([C@]8(Cc9nncn9C)C[C@@H](C#N)C8)c6)C7=O)C6(CC6)C5)CC4)CC3)ccc2C(=O)N1C1CCC(=O)NC1=O` (stereo partly shown) [Example 310, (1r,3r)-3-(3-{6-[(7-{[4-({1-[6-(2,6-dioxopiperidin-3-yl)-7-methyl-5-oxo-5H,6H,7H-pyrrolo[3,4-b]pyridin-2-yl]piperidin-4-yl}methyl)piperazin-1-yl]methyl}-4-azaspiro[2.5]octan-4-yl)methyl]-1-oxo-4-(trifluoromethyl)-2,3-dihydro-1H-isoindol-2-yl}phenyl)-3-[(4-methyl-4H-1,2,4-triazol-3-yl)methyl]cyclobutane-1-carbonitrile] are 5 to 50 nM, “C (C ≤ 35)”, 5 to 50 nM and 35 to 70%.
As for `Cn1cnnc1C(c1cccc(N2Cc3c(cc(CN4CCC[C@H](CN5CCN(C[C@H]6CC[C@@H](OC7CCN(c8ccc9c(c8F)CN(C8CCC(=O)NC8=O)C9=O)CC7)CC6)CC5)C4)cc3C(F)(F)F)C2=O)c1)C1CCC1` (stereo partly drawn) [Example 158, 3-[4-fluoro-1-oxo-5-(4-{[(1r,4r)-4-[(4-{[(3S)-1-[(2-{3-[cyclobutyl(4-methyl-4H-1,2,4-triazol-3-yl)methyl]phenyl}-3-oxo-7-(trifluoromethyl)-2,3-dihydro-1H-isoindol-5-yl)methyl]piperidin-3-yl]methyl}piperazin-1-yl)methyl]cyclohexyl]oxy}piperidin-1-yl)-2,3-dihydro-1H-isoindol-2-yl]piperidine-2,6-dione], at Cbl-b [1], the DC50 is less than 5 nM and the Dmax lay within 35 to 70%. At Cbl-b [2], the DC50 was less than 5 nM and the Dmax was greater than 70%.
As for `COc1c(N2CCC(F)(CN3CCC4(CC3)CN(c3cc5c(c(C(F)(F)F)c3)CN(c3cccc(C6(Cc7nncn7C)COC6)c3)C5=O)C4)CC2)ccc2c1CN(C1CCC(=O)NC1=O)C2=O` (stereo not shown) [Example 185, 3-{5-[4-fluoro-4-({2-[2-(3-{3-[(4-methyl-4H-1,2,4-triazol-3-yl)methyl]oxetan-3-yl}phenyl)-3-oxo-7-(trifluoromethyl)-2,3-dihydro-1H-isoindol-5-yl]-2,7-diazaspiro[3.5]nonan-7-yl}methyl)piperidin-1-yl]-4-methoxy-1-oxo-2,3-dihydro-1H-isoindol-2-yl}piperidine-2,6-dione], on Cbl-b [1], the DC50 fell in the range of 5 to 50 nM and the Dmax lay within 35 to 70%. In addition, at Cbl-b [2], the DC50 lay within 5 to 50 nM and the Dmax was in the range of 35 to 70%.
On to `Cn1cnnc1CC1(c2cccc(N3Cc4c(cc(CN5CCC(CC6CCN(c7ccc8c(c7)C(=O)N(C7CCC(=O)NC7=O)C8=O)CC6)C5)cc4C(F)(F)F)C3=O)c2)COC1` (stereo not shown) [Example 75, 2-(2,6-dioxopiperidin-3-yl)-5-{4-[(1-{[2-(3-{3-[(4-methyl-4H-1,2,4-triazol-3-yl)methyl]oxetan-3-yl}phenyl)-3-oxo-7-(trifluoromethyl)-2,3-dihydro-1H-isoindol-5-yl]methyl}pyrrolidin-3-yl)methyl]piperidin-1-yl}-2,3-dihydro-1H-isoindole-1,3-dione], for which the DC50 at Cbl-b [1] and at Cbl-b [2] was greater than 500 nM in each case.
